{"source": "patent US8999293B2", "about": "“Animal model of anxiety and depression” (University of Mississippi, priority 2005, dated 2015)", "key": {"domestic fowl chicks": {"test_system": "domestic fowl chicks", "details": "cited from earlier work; for detection in the chick separation stress paradigm: Warnick et al. 2006, panic disorder vs generalized anxiety disorder drugs; for detection of anxiolytic activity on separation-induced distress vocalizations: Feltenstein et al. 2004"}, "[1]": {"test_system": "Black Australorp chicks (stress-vulnerable)", "test": "Chick anxiety-depression model, 90 min isolation, Black Australorp strain (Example 5)", "details": "data not shown"}, "[2]": {"test_system": "isolated cockerels (Gallus gallus, strain W-36)", "format": "in vivo", "details": "isolated chicks vs vehicle-isolated, chlordiazepoxide 8 mg/kg", "from_the_text": "Subjects. Cockerels (Gallus gallus, strain W-36; Cal-Maine Foods, Mendenhall, Miss., USA) were obtained 1 day posthatch and housed in stainless steel cages (34×57×40 cm) at a population density of 12 chicks per cage. Food (Purina Start and Grow, St. Louis, Mo., USA) and water were available ad libitum through a 1-quart gravity-fed feeders and waterers.\nApparatus. […] The units were illuminated using 25-W light bulbs and ventilated by an 8-cmdiameter rotary fan. Miniature video cameras mounted at floor level in the corner of the enclosures allowed for animal observation. Microphones that mounted at the ceiling of the Plexiglas chamber were connected to digital sound-activating relays, which activated electromechanical counters. A white noise generator provided room masking noise.\nProcedure. Tests were conducted at either Day 4, 5, or 6 posthatch. Groups formed a single factorial design with a hanging control that included two vehicle-control groups in which chicks were tested in either an isolated or social condition, and two drug groups under the isolation condition. The vehicle was 0.9% physiological saline and the drug probes were chlordiazepoxide (8 mg/kg) and imipramine (15 mg/kg). Sample sizes were n=12 per cell. […]\nStatistics. Data were analyzed using one- and two-way repeated measures analysis of variance (ANOVA) and one-way simple effects ANOVA. […]"}, "[3]": {"test_system": "isolated cockerels (Gallus gallus; W36)", "test": "Chick anxiety-depression model, drug probe studies, 120 min isolation (Example 3)", "details": "for ED50: Gallus gallus; for isolation-induced DVoc rate during the anxiety-like phase (first five min time block) / isolation-induced DVoc rate during the depression-like phase (30-120 min) / sleep onset latency (SOL) to index sedation: IM fifteen minutes prior to testing; for isolation-induced DVoc rate during the anxiety-like phase (first five min time block) / isolation-induced DVoc rate during the depression-like phase (30-120 min): vs vehicle/isolated; for isolation-induced DVoc rate during the anxiety-like phase (first five min time block): attenuation = anxiolytic effect; for isolation-induced DVoc rate during the depression-like phase (30-120 min): increase = antidepressant effect; for sleep onset latency (SOL) to index sedation: vs vehicle/isolated chicks", "description": "Subjects and Housing Procedures. Cockerels (Gallus gallus; W36; Cal-Maine Foods, Inc.; Mendenhall, Miss.) were received one-day posthatch and housed in 34×57×40 cm stainless steel cages with 12-13 chicks per cage. Food (Purina Start and Grow, St. Louis, Mo.) and water were available ad libitum through one quart gravity-fed feeders (Murray MacMurray; Model 4BGFJ) and waterers (Murray MacMurray; Model 4YQW0). Room temperature was maintained at 29±1° C. and overhead illumination was maintained on a 12 hr light-dark cycle. Daily maintenance, which was conducted during the first three hr of the light cycle, involved refilling the waterer, refilling the feeder, and replacement of tray liners.\nApparatus. The testing apparatus consisted of a six-unit test apparatus containing Plexiglas viewing chambers (25×25×22 cm) placed in sound-attenuating enclosures. Each unit was illuminated and heated by a 25-W light bulb. Ventilation was provided by an eight centimeter diameter rotary fan (Commonwealth Model FP-108AX 51). Miniature video cameras (SuperCircuit Model PC60XP) mounted in the sound-attenuating enclosures at floor level and routed through a Multiplexor (SuperCircuit Model PC47MC) provided televised display of the chicks for behavioral observation. Distress vocalizations (DVocs) were recorded by microphones (Lafayette Instruments Model 3-675-001) mounted in the ceilings of the Plexiglas chambers and connected to digital sound-activating relays (Lafayette Instruments Model 63040A; settings: 75% sensitivity and 0.10 s delay) that triggered electromechanical counters (Lafayette Instruments Model 58004).\nDrug Probes. All experiments were conducted between five- and seven days posthatch. The groups in each experiment formed a 1×5 factorial design with a hanging control condition (n=9-12). The two vehicle control groups constituted the social separation stress manipulation. This manipulation involved placing a chick in the Plexiglas test chamber either in isolation or with two social companions for a 120 min test observation period. All drug probes were tested in the isolation condition.\nVehicle or a drug was administered IM fifteen minutes prior to testing. Dependent measures that were collected during the test session were DVocs to index separation stress and sleep onset latency (SOL) to index sedation. DVocs were defined as the vocalizations that are picked up by the electromechanical counters. SOL was defined as the time in which a chick adopts a sleep-like posture with either its chest in full contact with the floor and its eyes closed or its legs in a wide posture, its head drooping, and its eyes closed. Following each six-chick test session, the animals were returned to their home cage. After all animals were tested, they were euthanized via CO^2 asphyxiation.\nStatistical Analyses. In order to discretely analyze the drug effects in the anxiety-like state and the depression-like state, the raw DVoc data were converted to a rate per min score. The anxiety-like state DVoc rate consisted of the mean DVocs per min over the first five min of the test session. The depression-like state DVoc rate consisted of the mean DVocs per min from 30 min to 120 min. Following this conversion, the DVoc rates from the anxiety-like phase and depression-like phase were analyzed with a one-way ANOVA with Fisher's LSD post hoc analysis. Plasma IL-6 concentration data were analyzed using one-way ANOVA with Fisher's LSD post hoc analysis and independent sample t-tests."}, "[4]": {"details": "read-out: ED50 AD Effect (40-60 min time block)"}, "[5]": {"details": "read-out: ED50 AD Effect (60-80 min time block)"}, "[6]": {"details": "read-out: ED50 AD Effect (80-100 min time block)"}, "[7]": {"details": "read-out: ED50 AD Effect (100-120 min time block)"}}, "note": "Read-outs that look alike come from different tables or passages of the source.", "data": [{"compound": "O=C1CC2(CCCC2)CC(=O)N1CCCCN1CCN(c2ncccn2)CC1", "note": "[buspirone]", "values": [{"measurement": "detection in the chick separation stress paradigm", "setting": "domestic fowl chicks", "result": "insensitive"}]}, {"compound": "CNC1(c2ccccc2Cl)CCCCC1=O", "note": "(centres unmarked) [Ketamine, ketamine]", "values": [{"measurement": "antidepressant activity, follow-up study with ketamine at lower doses", "setting": "[1]; Black Australorps", "result": "failed to see antidepressant activity in either strain"}, {"measurement": "ataxia", "setting": "[1]; highest dose tested, strain not specified", "result": "transient (5-10 min) ataxia"}]}, {"compound": "CN(C)CCCN1c2ccccc2CCc2ccccc21", "note": "[Imipramine, imipramine]", "values": [{"measurement": "detection of anxiolytic activity on separation-induced distress vocalizations", "setting": "domestic fowl chicks", "result": "successful detection"}, {"measurement": "detection in the chick separation stress paradigm", "setting": "domestic fowl chicks", "result": "selectively detected"}, {"measurement": "distress vocalizations (DVocs) at the first five minute time block", "setting": "[2]; IP 15 minute before tests, imipramine 15 mg/kg", "result": "attenuated DVocs"}, {"measurement": "DVoc rates at the 20 minute block and beyond", "setting": "[2]; imipramine 15 mg/kg IP", "result": "enhanced DVoc rates"}, {"measurement": "ED50", "setting": "[3]; [4]", "result": 10, "unit": "mg/kg"}, {"measurement": "ED50", "setting": "[3]; [5]", "result": 8.5, "unit": "mg/kg"}, {"measurement": "ED50", "setting": "[3]; [6]", "result": 9.1, "unit": "mg/kg"}, {"measurement": "ED50", "setting": "[3]; [7]", "result": 7.6, "unit": "mg/kg"}, {"measurement": "isolation-induced DVoc rate during the anxiety-like phase (first five min time block)", "setting": "[3]", "result": "significant attenuation of the separation-induced DVoc rate at the 10 mg/kg and 15 mg/kg doses"}, {"measurement": "isolation-induced DVoc rate during the depression-like phase (30-120 min)", "setting": "[3]", "result": "significant exacerbation of the DVoc rate in the 1 mg/kg, 3 mg/kg and 15 mg/kg doses (p^s<0.005) and a marginally significant exacerbation in the 10 mg/kg dose condition"}]}, {"compound": "Clc1cccc(Cl)c1N=C1NCCN1", "note": "[clonidine]", "values": [{"measurement": "detection of anxiolytic activity on separation-induced distress vocalizations", "setting": "domestic fowl chicks", "result": "successful detection"}, {"measurement": "detection in the chick separation stress paradigm", "setting": "domestic fowl chicks", "result": "selectively detected"}, {"measurement": "sleep onset latency (SOL) to index sedation", "setting": "[3]", "result": "significant SOL reduction in the 0.15 mg/kg and 0.20 mg/kg doses (p^s<0.05) and a marginally significant reduction in the 0.25 mg/kg dose"}, {"measurement": "isolation-induced DVoc rate during the anxiety-like phase (first five min time block)", "setting": "[3]", "result": "significant attenuation of the separation-induced DVoc rate at all doses"}, {"measurement": "isolation-induced DVoc rate during the depression-like phase (30-120 min)", "setting": "[3]", "result": "did not reveal a significant effect"}]}, {"compound": "O=C(CCCN1CCC(O)(c2ccc(Cl)cc2)CC1)c1ccc(F)cc1", "note": "[haloperidol]", "values": [{"measurement": "detection of anxiolytic activity on separation-induced distress vocalizations", "setting": "domestic fowl chicks", "result": "insensitive"}]}, {"compound": "O=c1n(CCCN2CCN(c3cccc(Cl)c3)CC2)nc2ccccn12", "note": "[trazodone]", "values": [{"measurement": "detection in the chick separation stress paradigm", "setting": "domestic fowl chicks", "result": "insensitive"}]}, {"compound": "CNCCCC12CCC(c3ccccc31)c1ccccc12", "note": "[Maprotiline, maprotiline]", "values": [{"measurement": "ED50", "setting": "[3]; read-out: ED50 AD Effect (20-40 min time block)", "result": 17.2, "unit": "mg/kg"}, {"measurement": "ED50", "setting": "[3]; [4]", "result": 14, "unit": "mg/kg"}, {"measurement": "ED50", "setting": "[3]; [5]", "result": 14.9, "unit": "mg/kg"}, {"measurement": "ED50", "setting": "[3]; [6]", "result": 13.6, "unit": "mg/kg"}, {"measurement": "ED50", "setting": "[3]; [7]", "result": 14.6, "unit": "mg/kg"}, {"measurement": "isolation-induced DVoc rate during the anxiety-like phase (first five min time block)", "setting": "[3]", "result": "significant attenuation of the separation-induced DVoc rate at the 20 mg/kg dose"}, {"measurement": "isolation-induced DVoc rate during the depression-like phase (30-120 min)", "setting": "[3]", "result": "the three lowest doses (2.5 mg/kg, 5 mg/kg, and 10 mg/kg) exacerbated DVocs"}]}, {"compound": "CNC1=Nc2ccc(Cl)cc2C(c2ccccc2)=[N+]([O-])C1", "note": "[chlordiazepoxide]", "values": [{"measurement": "sleep onset latency (SOL) to index sedation", "setting": "[3]", "result": "significant SOL reduction in the 10 mg/kg dose"}]}, {"compound": "CCCC(C)C1(CC)C(=O)NC(=O)NC1=O", "note": "(centres unmarked) [pentobarbital]", "values": [{"measurement": "detection of anxiolytic activity on separation-induced distress vocalizations", "setting": "domestic fowl chicks", "result": "successful detection"}]}, {"compound": "Cc1nnc2n1-c1ccc(Cl)cc1C(c1ccccc1)=NC2", "note": "[alprazolam]", "values": [{"measurement": "detection in the chick separation stress paradigm", "setting": "domestic fowl chicks", "result": "selectively detected"}]}, {"compound": "NNCCc1ccccc1", "note": "[phenelzine]", "values": [{"measurement": "detection in the chick separation stress paradigm", "setting": "domestic fowl chicks", "result": "selectively detected"}]}, {"compound": "CC(N)Cc1ccccc1", "note": "(centres unmarked) [amphetamine]", "values": [{"measurement": "detection of anxiolytic activity on separation-induced distress vocalizations", "setting": "domestic fowl chicks", "result": "insensitive"}]}, {"compound": "CNCCC(Oc1ccc(C(F)(F)F)cc1)c1ccccc1", "note": "(centres unmarked) [Fluoxetine, fluoxetine]", "values": [{"measurement": "ED50", "setting": "[3]; [4]", "result": 16.5, "unit": "mg/kg"}, {"measurement": "ED50", "setting": "[3]; [5]", "result": 13.3, "unit": "mg/kg"}, {"measurement": "ED50", "setting": "[3]; [6]", "result": 14, "unit": "mg/kg"}, {"measurement": "ED50", "setting": "[3]; [7]", "result": 14, "unit": "mg/kg"}, {"measurement": "isolation-induced DVoc rate during the anxiety-like phase (first five min time block)", "setting": "[3]", "result": "none of the doses of fluoxetine attenuated DVocs"}, {"measurement": "isolation-induced DVoc rate during the depression-like phase (30-120 min)", "setting": "[3]", "result": "significant exacerbation of the DVoc rate in the 1 mg/kg, 10 mg/kg and 20 mg/kg doses"}]}, {"compound": "CCCC(C)(COC(N)=O)COC(N)=O", "note": "[meprobamate]", "values": [{"measurement": "detection of anxiolytic activity on separation-induced distress vocalizations", "setting": "domestic fowl chicks", "result": "successful detection"}]}, {"compound": "CN(C)CCCN1c2ccccc2Sc2ccc(Cl)cc21", "note": "[chlorpromazine]", "values": [{"measurement": "detection of anxiolytic activity on separation-induced distress vocalizations", "setting": "domestic fowl chicks", "result": "insensitive"}]}, {"compound": "CN1[C@@H]2C[C@@H](OC(=O)[C@H](CO)c3ccccc3)C[C@H]1[C@@H]1O[C@@H]12", "note": "[scopolamine]", "values": [{"measurement": "detection of anxiolytic activity on separation-induced distress vocalizations", "setting": "domestic fowl chicks", "result": "insensitive"}]}]}
